According to the NIST ThermoML archive (doi:10.1016/j.fluid.2016.06.011):

Settings: Liquid; for mass density: 101.33 kPa, Vibrating tube method; for vapor or sublimation pressure: Closed cell (Static) method

OCC(F)(F)C(F)(F)F [2,2,3,3,3-pentafluoropropanol]
Settings | mass density [kg/m3] | vapor or sublimation pressure [kPa]
278.16 K | 1542.78 | –
279.15 K | 1540.99 | –
280.15 K | 1539.17 | –
281.15 K | 1537.35 | –
282.15 K | 1535.52 | –
283.15 K | 1533.69 | –
284.15 K | 1531.86 | –
285.15 K | 1530.02 | –
286.15 K | 1528.18 | –
287.15 K | 1526.33 | –
288.15 K | 1524.47 | –
289.15 K | 1522.62 | –
290.15 K | 1520.75 | –
291.15 K | 1518.88 | –
292.15 K | 1517 | –
293.15 K | 1515.12 | –
294.15 K | 1513.23 | –
295.15 K | 1511.35 | –
296.15 K | 1509.44 | –
297.15 K | 1507.54 | –
298.08 K | – | 6.205
298.15 K | 1505.63 | –
299.15 K | 1503.71 | –
300.15 K | 1501.79 | –
301.15 K | 1499.86 | –
302.15 K | 1497.92 | –
303.05 K | – | 8.416
303.15 K | 1495.97 | –
304.15 K | 1494.03 | –
305.14 K | 1492.07 | –
306.15 K | 1490.1 | –
307.15 K | 1488.13 | –
308.04 K | – | 11.31
308.15 K | 1486.15 | –
309.14 K | 1484.16 | –
310.14 K | 1482.16 | –
311.14 K | 1480.16 | –
312.14 K | 1478.14 | –
313.01 K | – | 14.97
313.14 K | 1476.12 | –
314.15 K | 1474.09 | –
315.15 K | 1472.06 | –
316.14 K | 1470.01 | –
317.14 K | 1467.95 | –
317.98 K | – | 19.59
318.15 K | 1465.89 | –
319.14 K | 1463.82 | –
320.14 K | 1461.73 | –
321.15 K | 1459.64 | –
322.14 K | 1457.55 | –
322.96 K | – | 25.41
323.14 K | 1455.43 | –
324.14 K | 1453.31 | –
325.14 K | 1451.18 | –
326.14 K | 1449.05 | –
327.14 K | 1446.89 | –
327.93 K | – | 32.49
328.15 K | 1444.74 | –
329.15 K | 1442.57 | –
330.14 K | 1440.39 | –
331.14 K | 1438.2 | –
332.14 K | 1436 | –
333.14 K | 1433.79 | –
334.14 K | 1431.57 | –
335.14 K | 1429.34 | –
336.14 K | 1427.1 | –
337.14 K | 1424.84 | –
338.14 K | 1422.58 | –
339.14 K | 1420.31 | –
340.14 K | 1418.03 | –
341.14 K | 1415.72 | –
342.14 K | 1413.42 | –
343.15 K | 1411.1 | –
344.15 K | 1408.78 | –
345.15 K | 1406.43 | –
346.15 K | 1404.08 | –
347.15 K | 1401.72 | –
348.15 K | 1399.34 | –
349.14 K | 1396.95 | –
350.14 K | 1394.55 | –
351.14 K | 1392.14 | –
352.14 K | 1389.72 | –
353.14 K | 1387.29 | –
